Patent publication US9067922B2, “Chemical compounds” (Pfizer Limited, priority 2013, dated 2015)

These compounds were tested against URAT-1 transporter (Homo sapiens (Human), UniProt Q96S37) (assay: URAT-1 inhibitor activity: [14C]-uric acid uptake in CHO-URAT1(L)GFP#8 (CHO#8) cells, scintillation proximity). Settings: inhibition of [14C]-uric acid (30 nM) uptake into CHO#8 cells; compound 0 to 10 μM; 4 parameter logistic fit.
Type: cell-based
Description: The nucleotide sequence for the long isoform of URAT1 (NM_144585) was C-terminally fused to that of enhanced green fluorescent protein (eGFP) (hereinafter referred to as URAT1(L)GFP). The combined sequence was codon-optimised and custom synthesized. The synthesized sequence was generated in pDONR221 Gateway entry vector (Invitrogen Life Technologies) prior to cloning in pLenti6.3/V5 Gateway destination vector (Invitrogen Life Technologies).
Lentiviral particles were generated according to ViraPower HiPerform expression system procedure (Invitrogen Life Technologies) and used to transduce CHO cells. […] The clonal pools were sorted using fluorescence-activated cell sorting (FACS) on the basis of GFP expression with the gating set at the top 50% of expression into single cells which were subsequently expanded to generate clonal lines. […] This cell line was used for all screening activities and is referred to as CHO-URAT1(L)GFP#8 or CHO#8.
The potency of the compounds of formula (I) as inhibitors of the URAT-1 transporter was determined as follows.
CHO#8 cells were cultured in cell line maintenance flasks in medium consisting of Dulbecco's modified Eagle medium (DMEM) with high glucose and sodium pyruvate (4.5 g of glucose per liter, Invitrogen Life Technologies), supplemented with heat-inactivated foetal bovine serum (FBC, 10% v/v), 1×NEAA (non-essential amino acids) and blasticidin (10 μg/ml). Cultures were grown in 175 cm^2 tissue culture flasks in a humidified incubator at approximately 37° C. in approximately 95% air/5% CO2. Near confluent CHO#8 cell cultures were harvested by trypsinisation, re-suspended in culture medium and the process was repeated once or twice weekly to provide sufficient cells for use.
Assay ready flasks were generated by the same method, except the cells were not cultured in blasticidin.
Assay ready frozen cells were generated by freezing 40,000,000 cells in 1 ml of FBS (without blasticidin) containing 10% DMSO per vial. One vial was sufficient for 5 assay plates. Each vial was thawed rapidly to 37° C., washed and re-suspended in pre-warmed culture medium for seeding onto assay plates.
CHO#8 cells were seeded onto Cytostar™ 96-well plates at a density of […]. The cells were cultured for 1 day at approximately 37° C. in a humidified incubator containing approximately 5% CO2 in air. After approximately 24 hours culture, cells were used for uptake experiments.
On the day of assay, culture medium was removed from the wells and the cells were washed once with 50 μL of chloride-containing buffer (136.7 mM NaCl, 5.36 mM KCl, 0.952 mM CaCl2, 0.441 mM KH2PO4, 0.812 mM MgSO4, 5.6 mM D-glucose, 0.383 mM Na2HPO4.2H2O, 10 mM HEPES, pH 7.4 with NaOH). The cells were pre-incubated with another 50 μL of chloride-containing buffer for one hour at approximately 37° C. in a humidified incubator containing approximately 5% CO2 in air.
Assay compound plates were prepared by diluting the compounds of formula (I) with chloride-free buffer (125 mM Na-gluconate, 4.8 mM K-gluconate, 1.3 mM Ca-gluconate, 1.2 mM KH2PO4, 1.2 mM MgSO4, 5.6 mM D-glucose, 25 mM HEPES, pH 7.4 with NaOH) in 100% DMSO to a final concentration of 1% DMSO. [^14C]-Uric Uric acid working stock was made by addition of radiolabeled compound to a final concentration of 120 nM in chloride-free buffer. In all wells, the final assay concentration of solvent (DMSO) was 0.25%; the final assay concentration of [^14C]-uric acid was 30 nM in chloride-free buffer and the final compound of formula (I) concentrations ranged from 0 to 10 μM.
After pre-incubation, cells were washed with 50 μL of chloride-free buffer and another 50 μL of chloride-free buffer was added.

Chain of URAT-1 transporter (Q96S37 other isoform, or with tags, fused parts or gaps): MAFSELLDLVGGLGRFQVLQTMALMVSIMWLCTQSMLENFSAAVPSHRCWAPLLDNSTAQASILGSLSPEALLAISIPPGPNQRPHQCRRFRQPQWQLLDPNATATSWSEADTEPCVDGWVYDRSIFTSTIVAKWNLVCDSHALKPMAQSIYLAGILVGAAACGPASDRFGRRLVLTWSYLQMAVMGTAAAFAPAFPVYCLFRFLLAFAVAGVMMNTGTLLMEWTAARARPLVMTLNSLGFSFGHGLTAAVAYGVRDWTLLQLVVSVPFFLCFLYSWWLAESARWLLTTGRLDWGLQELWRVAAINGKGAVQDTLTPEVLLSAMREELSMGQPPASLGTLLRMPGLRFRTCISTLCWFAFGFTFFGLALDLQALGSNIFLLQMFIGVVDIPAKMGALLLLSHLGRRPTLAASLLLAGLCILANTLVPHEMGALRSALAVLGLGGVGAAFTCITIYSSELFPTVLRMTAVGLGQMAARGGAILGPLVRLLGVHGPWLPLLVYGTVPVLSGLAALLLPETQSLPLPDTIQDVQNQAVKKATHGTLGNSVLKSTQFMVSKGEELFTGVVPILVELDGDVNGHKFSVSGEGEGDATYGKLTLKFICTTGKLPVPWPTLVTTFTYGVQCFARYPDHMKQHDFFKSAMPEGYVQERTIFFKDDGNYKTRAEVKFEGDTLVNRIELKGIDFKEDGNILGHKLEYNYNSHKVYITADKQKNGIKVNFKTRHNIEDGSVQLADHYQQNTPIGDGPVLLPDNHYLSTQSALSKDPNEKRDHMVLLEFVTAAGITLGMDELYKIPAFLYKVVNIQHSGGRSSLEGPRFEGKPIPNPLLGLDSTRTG

| Structure (SMILES) | IC50 [nM] |
| --- | --- |
| COc1c(F)ccc(Oc2ccc(S(=O)(=O)Nc3ccc(F)cn3)cc2C#N)c1C [Example 165, 3-cyano-4-(4-fluoro-3-methoxy-2-methylphenoxy)-N-(5-fluoropyridin-2-yl)benzenesulfonamide] | 139 |
| COc1cc(C)ccc1Oc1ccc(S(=O)(=O)Nc2ccc(F)cn2)cc1C#N [Example 140, 3-cyano-N-(5-fluoropyridin-2-yl)-4-(2-methoxy-4-methylphenoxy)benzenesulfonamide] | > 10000 |
| CN(C)c1cccc(Oc2ccc(S(=O)(=O)Nc3ccc(F)cn3)cc2C#N)c1 [Example 131, 3-cyano-4-[3-(dimethylamino)phenoxy]-N-(5-fluoropyridin-2-yl)benzenesulfonamide] | > 10000 |
| Cc1ccnc(NS(=O)(=O)c2ccc(Oc3cccc(Cl)c3C#N)cc2)n1 [Example 220, 4-(3-chloro-2-cyanophenoxy)-N-(4-methylpyrimidin-2-yl)benzenesulfonamide] | > 10000 |
| Cc1cc(Cl)ccc1Oc1ccc(S(=O)(=O)Nc2ccc(F)cn2)cc1C#N [Example 5, 4-(4-chloro-2-methylphenoxy)-3-cyano-N-(5-fluoropyridin-2-yl)benzenesulfonamide] | 148 |
| Cc1cc(Oc2ccc(S(=O)(=O)Nc3ccc(F)cn3)cc2C#N)cc(C(C)C)c1 [Example 105, 3-cyano-N-(5-fluoropyridin-2-yl)-4-[3-methyl-5-(propan-2-yl)phenoxy]benzenesulfonamide] | > 10000 |
| CC(C)c1cc(Oc2ccc(S(=O)(=O)Nc3ccc(F)cn3)cc2C#N)ccc1Cl [Example 164, 4-[4-chloro-3-(propan-2-yl)phenoxy]-3-cyano-N-(5-fluoropyridin-2-yl)benzenesulfonamide] | 6160 |
| N#Cc1cc(S(=O)(=O)Nc2ccc(F)cn2)ccc1Oc1ccc(Cl)cc1 [Example 20, 4-(4-chlorophenoxy)-3-cyano-N-(5-fluoropyridin-2-yl)benzenesulfonamide] | 88 |
| N#Cc1ccc(Oc2c(F)cc(S(=O)(=O)Nc3ccc(F)cn3)cc2C#N)cc1Cl [Example 248, 4-(3-chloro-4-cyanophenoxy)-3-cyano-5-fluoro-N-(5-fluoropyridin-2-yl)benzenesulfonamide] | 324 |
| COc1ccc(F)c(Oc2ccc(S(=O)(=O)Nc3ccc(F)cn3)cc2C#N)c1 [Example 166, 3-cyano-4-(2-fluoro-5-methoxyphenoxy)-N-(5-fluoropyridin-2-yl)benzenesulfonamide] | 116 |
| CCOc1ncc(Oc2ccc(S(=O)(=O)Nc3ccc(F)cn3)cc2C#N)cc1Cl [Example 125, 4-[(5-chloro-6-ethoxypyridin-3-yl)oxy]-3-cyano-N-(5-fluoropyridin-2-yl)benzenesulfonamide] | 237 |
| CCN(CC)c1cccc(Oc2ccc(S(=O)(=O)Nc3ccc(F)cn3)cc2C#N)c1 [Example 113, 3-cyano-4-[3-(diethylamino)phenoxy]-N-(5-fluoropyridin-2-yl)benzenesulfonamide] | > 10000 |
| COc1cc(F)ccc1Oc1ccc(S(=O)(=O)Nc2ccc(F)cn2)cc1C#N [Example 160, 3-cyano-4-(4-fluoro-2-methoxyphenoxy)-N-(5-fluoropyridin-2-yl)benzenesulfonamide] | > 10000 |
| N#Cc1ccc(Oc2ccc(S(=O)(=O)Nc3ccncc3)cc2C#N)cc1Cl [Example 100, 4-(3-chloro-4-cyanophenoxy)-3-cyano-N-(pyridin-4-yl)benzenesulfonamide] | > 10000 |
| Cc1ccccc1Oc1ccc(S(=O)(=O)Nc2ccc(F)cn2)cc1C#N [Example 186, 3-cyano-N-(5-fluoropyridin-2-yl)-4-(2-methylphenoxy)benzenesulfonamide] | 324 |
| COc1ccccc1Oc1ccc(S(=O)(=O)Nc2ccc(F)cn2)cc1C#N [Example 142, 3-cyano-N-(5-fluoropyridin-2-yl)-4-(2-methoxyphenoxy)benzenesulfonamide] | 75 |
| N#Cc1ccc(Oc2ccc(S(=O)(=O)Nc3ccc(F)cn3)cc2C#N)cc1 [Example 10, 3-cyano-4-(4-cyanophenoxy)-N-(5-fluoropyridin-2-yl)benzenesulfonamide] | 74 |

| Structure (SMILES) | IC50 [nM] |
| --- | --- |
| Cc1cc(Oc2ccc(S(=O)(=O)Nc3ccc(F)cn3)cc2C#N)cc(C)c1C#N [Example 79, 3-cyano-4-(4-cyano-3,5-dimethylphenoxy)-N-(5-fluoropyridin-2-yl)benzenesulfonamide] | 7 |
| N#Cc1ccnc(NS(=O)(=O)c2ccc(Oc3ccc(F)c(Cl)c3)c(C#N)c2)c1 [compound 229] | 126 |
| N#Cc1cc(F)c(Oc2ccc(S(=O)(=O)Nc3ccc(F)cn3)cc2C#N)cc1F [Example 72, 3-cyano-4-(4-cyano-2,5-difluorophenoxy)-N-(5-fluoropyridin-2-yl)benzenesulfonamide] | 77 |
| Cc1cc(C)cc(Oc2ccc(S(=O)(=O)Nc3ccc(F)cn3)cc2C#N)c1 [Example 150, 3-cyano-4-(3,5-dimethylphenoxy)-N-(5-fluoropyridin-2-yl)benzenesulfonamide] | 329 |
| Cc1cc(Oc2ccc(S(=O)(=O)Nc3ccc(F)cn3)cc2C#N)c(C(C)C)cc1Cl [Example 133, 4-[4-chloro-5-methyl-2-(propan-2-yl)phenoxy]-3-cyano-N-(5-fluoropyridin-2-yl)benzenesulfonamide] | 793 |
| O=S(=O)(Nc1ncccn1)c1cc(Cl)c(Oc2ccc(F)c(F)c2)cc1F [compound 210] | > 10000 |
| COc1ccc(Oc2ccc(S(=O)(=O)Nc3ccc(F)cn3)cc2C#N)cc1Cl [Example 148, 4-(3-chloro-4-methoxyphenoxy)-3-cyano-N-(5-fluoropyridin-2-yl)benzenesulfonamide] | 53 |
| N#Cc1ccc(Oc2ccc(S(=O)(=O)Nc3ccccn3)cc2C#N)cc1Cl [Example 89, 4-(3-chloro-4-cyanophenoxy)-3-cyano-N-(pyridin-2-yl)benzenesulfonamide] | 105 |
| CCc1ccc(Oc2ccc(S(=O)(=O)Nc3ccc(F)cn3)cc2C#N)cc1 [Example 50, 3-cyano-4-(4-ethylphenoxy)-N-(5-fluoropyridin-2-yl)benzenesulfonamide] | > 10000 |
| N#Cc1cc(S(=O)(=O)Nc2ccc(F)cn2)ccc1Oc1cccc(C2CC2)c1 [Example 118, 3-cyano-4-(3-cyclopropylphenoxy)-N-(5-fluoropyridin-2-yl)benzenesulfonamide] | > 10000 |
| Cc1ccc(NS(=O)(=O)c2ccc(Oc3ccc(C#N)c(Cl)c3)c(C#N)c2)nc1 [compound 233] | 233 |
| N#Cc1ccc(Oc2ccc(S(=O)(=O)Nc3ccc(F)cn3)cc2C#N)c(Cl)c1 [Example 30, 4-(2-chloro-4-cyanophenoxy)-3-cyano-N-(5-fluoropyridin-2-yl)benzenesulfonamide] | 183 |
| CCOc1ccccc1Oc1ccc(S(=O)(=O)Nc2ccc(F)cn2)cc1C#N [Example 151, 3-cyano-4-(2-ethoxyphenoxy)-N-(5-fluoropyridin-2-yl)benzenesulfonamide] | > 10000 |
| N#Cc1cc(S(=O)(=O)Nc2ccc(F)cn2)ccc1Oc1ccc(C(F)(F)F)nc1 [Example 196, 3-cyano-N-(5-fluoropyridin-2-yl)-4-{[6-(trifluoromethyl)pyridin-3-yl]oxy}benzenesulfonamide] | > 10000 |
| Cc1ccc(Oc2ccc(S(=O)(=O)Nc3ccc(F)cn3)cc2C#N)cc1 [Example 191, 3-cyano-N-(5-fluoropyridin-2-yl)-4-(4-methylphenoxy)benzenesulfonamide] | 1990 |
| N#Cc1ccc(Oc2ccc(S(=O)(=O)Nc3ccc(F)cn3)cc2Cl)cc1F [compound 228] | 244 |
| Cc1cc(Oc2ccc(S(=O)(=O)Nc3ccc(F)cn3)cc2C#N)cc(C)c1Cl [Example 149, 4-(4-chloro-3,5-dimethylphenoxy)-3-cyano-N-(5-fluoropyridin-2-yl)benzenesulfonamide] | 95 |
